US8791132B2, “Compounds and methods for treatment of hypertension” (Medivation Technologies, Inc., priority 2011, dated 2014)
Values belong to the compound of their own block, whether it stands above or below them.

Columns and labels:
[1] = test system: conscious New Zealand White rabbits; assay: Blood pressure in conscious rabbits; format: in vivo, rabbit; conditions: i.v. cumulative dose-response study, Compound 3b maximum at 10 mg/kg
Description: Methods: Four adult New Zealand White rabbits of both sexes were chosen for these studies. […] To unveil peripheral effects of Compound 3b, two sets of acute studies were conducted in rabbits. […] A single intravenous bolus dose at 3 mg/kg was given and a time-course study was conducted in the second set of studies. Systolic, […], mean and […] blood pressures were recorded in both the studies. […] In a separate set of studies, Clonidine (positive control) was tested where all experimental procedures including dose-regimen were identical to that of the studies with […].

[2] = test system: SH-SY5Y cells over-expressing α-syn; assay: Cell viability (MTS reduction) in SH-SY5Y cells over-expressing α-synuclein; format: cell-based; conditions: Homo sapiens, 336 h, α-syn over-expression (−dox), compounds at 10 nM, +dox control = 100, 14 days, read-out: Relative cell viability protection
Description: Cell Culture. SH-SY5Y cells stably transfected with a doxycyline-inducible wild-type α-synuclein (α-syn) gene along with control SH-SY5Y cells over-expressing the β-galactosidase (β-gal) gene (a gift from L. Stefanis, Division of Basic Neurosciences, Biomedical Research Foundation of the Academy of Athens, Athens, Greece) are cultured as described by Vekrellis et al. (Vekrellis K, Xilouri M, Emmanouilidou E, Stefanis L. (2009). Inducible over-expression of α-syn in human neuronal cells leads to caspase-dependent non-apoptotic death. J Neurochem 109, 1348-1362). In accordance with this method, cells are cultured and maintained in RPMI 1640, 10% fetal bovine serum supplemented with 250 μg/mL G418 and 50 μg/mL Hygromycin B. Expression of α-syn is switched off in stock cultures with doxycycline (2 μg/mL). For experimental procedures, cells are plated at (4−8×10^4 cells/cm^2) and differentiated in absence of doxycycline and in the presence of 20 μM all-trans retinoic acid (RA) (Sigma, St Louis, Mo., USA).
Viability Assay: Cells are cultured in 96-well plates. After 24 h, cells are treated with RA and Compounds of Invention at 0.1 and 10 nM in the absence of doxycyline. Culture medium with RA and drugs is fully replaced after 7 days. Cell viability is measured by the release of lactate dehydrogenase (LDH) from necrotic cells into the culture medium and by measuring the capacity of cells to metabolize MTS tetrazolium (MTS) after 14 days in culture. LDH leakage is assessed according to the Cytotoxicity Detection KitPlus (Roche, Mannheim, Germany) and MTS reduction is assessed by the CellTiter 96® AQueous One Solution Cell Proliferation assay (Promega Corporation, Madison, Wis., USA).
Assay results for the experiments with α-syn over-expression are presented as the MTS reduction capacity (cell viability) of control cells (+dox), cells over-expressing α-syn (−dox), and cells over-expressing α-syn incubated with Compounds of the Invention at 0.1 nM (FIG. 18A) or 10 nM (FIG. 18B).

SH-SY5Y cells = assay: Cell viability (MTS reduction) in 4-Br-A23187-treated SH-SY5Y cells; format: cell-based; conditions: MTS reduction capacity
Description: After 24 h, cells were depleted from FBS and kept in culture for 24 h before the experiment. Cells were then treated with 4-Br-A23187 (2 μM), hydrogen peroxide (300 μM) or the mitochondrial toxin rotenone (25 μM) in the presence of vehicle or Compound of the Invention for 24 h. Cell death was determined by measurements of LDH release according to the Cytotoxicity Detection KitPlus (Roche, Mannheim, Germany). Cell viability was determined by measuring the capacity of cells to metabolize MTS tetrazolium (MTS) according to the Cytotoxicity Detection KitPlus (Roche, Mannheim, Germany) and MTS reduction is assessed by the CellTiter 96® AQueous One Solution Cell Proliferation assay (Promega Corporation, Madison, Wis., USA). Compounds were screened at 10 nM, using DMSO as vehicle. Assay results for the experiments with hydrogen peroxide are presented as the LDH release (cell death) of untreated cells (control), hydrogen peroxide-treated cells (vehicle), and co-incubation of hydrogen peroxide with Compounds of the Invention treated cells normalized to the vehicle (FIG. 17A). This assay assesses the ability of the test compounds to protect against cell death that is mediated by mitochondrial dysfunction. In the assay, the calcium ionophore 4-Br-A23187 is used to challenge the cells, causing calcium levels to rise in mitochondria, which leads to depolarization and cell death. Test compounds are assessed for their ability to prevent cell death in response to challenge with 4-Br-A23187.

[3] = target: T1, human recombinant adrenergic α2B receptor (Homo sapiens, UniProt P18089); assay: Radioligand binding, adrenergic α2B ([3H]Rauwolscine); conditions: [3H]Rauwolscine, repeat assays, each datapoint shown
T1 construct: expressed in transfected cells; host or cells: CHO-K1
T1 sequence (P18089 1-450): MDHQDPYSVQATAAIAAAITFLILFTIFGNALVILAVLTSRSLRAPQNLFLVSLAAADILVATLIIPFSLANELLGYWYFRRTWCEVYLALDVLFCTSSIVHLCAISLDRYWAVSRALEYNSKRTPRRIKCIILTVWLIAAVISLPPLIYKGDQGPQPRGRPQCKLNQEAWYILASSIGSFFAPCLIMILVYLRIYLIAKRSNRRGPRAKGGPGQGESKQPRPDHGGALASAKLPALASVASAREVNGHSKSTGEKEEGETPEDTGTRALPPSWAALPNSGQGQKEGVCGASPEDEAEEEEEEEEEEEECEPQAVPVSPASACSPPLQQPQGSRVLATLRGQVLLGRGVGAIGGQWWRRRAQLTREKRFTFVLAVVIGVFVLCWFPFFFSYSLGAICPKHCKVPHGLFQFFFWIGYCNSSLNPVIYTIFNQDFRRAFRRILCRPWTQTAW
In short: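 Receptor expressed in CHO-K1 cells, assayed in 50 mM Tris-HCl pH 7.4 with 12.5 mM MgCl2, 1 mM EDTA and 0.2% BSA. Compounds were incubated with 2.5 nM [3H]Rauwolscine for 60 min at 25° C; 10 μM Prazosin defined non-specific binding. Filter counting gave percent inhibition of specific binding.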

[4] = target: T2, rat adrenergic α1B receptor (Rattus norvegicus, UniProt P15823); assay: Radioligand binding, adrenergic α1B ([3H]Prazosin); conditions: compound at 0.1 μM, [3H]Prazosin, repeat assays, each datapoint shown; for Percentage inhibition of ligand binding, Adrenergic α1B: 0.1 µM
T2 construct: rat adrenergic α1B receptor obtained from Wistar Rat liver; from tissue; host or cells: Wistar rat liver
T2 sequence (P15823 1-515): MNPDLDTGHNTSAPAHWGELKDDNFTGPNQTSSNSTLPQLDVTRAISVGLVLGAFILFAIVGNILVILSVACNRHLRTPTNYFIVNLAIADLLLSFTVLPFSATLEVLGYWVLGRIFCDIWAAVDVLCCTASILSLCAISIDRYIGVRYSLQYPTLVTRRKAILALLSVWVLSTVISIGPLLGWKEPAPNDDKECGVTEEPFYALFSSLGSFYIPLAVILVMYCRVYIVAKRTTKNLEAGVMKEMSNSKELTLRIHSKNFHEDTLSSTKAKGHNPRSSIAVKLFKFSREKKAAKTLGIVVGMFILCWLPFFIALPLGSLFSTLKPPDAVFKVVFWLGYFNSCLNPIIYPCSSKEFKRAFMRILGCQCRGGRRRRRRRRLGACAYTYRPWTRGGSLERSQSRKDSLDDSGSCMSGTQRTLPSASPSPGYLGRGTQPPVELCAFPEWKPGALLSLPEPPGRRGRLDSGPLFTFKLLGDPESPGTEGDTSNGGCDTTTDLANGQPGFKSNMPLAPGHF
In short: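 Filter binding with Wistar rat liver α1B preparation: test compound plus 0.25 nM [3H]prazosin, 1 h at 25° C in modified Tris-HCl buffer pH 7.4.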

[5] = target: T3, human recombinant adrenergic α1D receptor (Homo sapiens, UniProt P25100); assay: Radioligand binding, adrenergic α1D ([3H]Prazosin); conditions: compound at 0.1 μM; [3H]Prazosin; repeat assays, each datapoint shown; read-out: Percentage inhibition of ligand binding, Adrenergic α1D
T3 construct: expressed in transfected cells; host or cells: HEK-293
T3 sequence (P25100 1-572): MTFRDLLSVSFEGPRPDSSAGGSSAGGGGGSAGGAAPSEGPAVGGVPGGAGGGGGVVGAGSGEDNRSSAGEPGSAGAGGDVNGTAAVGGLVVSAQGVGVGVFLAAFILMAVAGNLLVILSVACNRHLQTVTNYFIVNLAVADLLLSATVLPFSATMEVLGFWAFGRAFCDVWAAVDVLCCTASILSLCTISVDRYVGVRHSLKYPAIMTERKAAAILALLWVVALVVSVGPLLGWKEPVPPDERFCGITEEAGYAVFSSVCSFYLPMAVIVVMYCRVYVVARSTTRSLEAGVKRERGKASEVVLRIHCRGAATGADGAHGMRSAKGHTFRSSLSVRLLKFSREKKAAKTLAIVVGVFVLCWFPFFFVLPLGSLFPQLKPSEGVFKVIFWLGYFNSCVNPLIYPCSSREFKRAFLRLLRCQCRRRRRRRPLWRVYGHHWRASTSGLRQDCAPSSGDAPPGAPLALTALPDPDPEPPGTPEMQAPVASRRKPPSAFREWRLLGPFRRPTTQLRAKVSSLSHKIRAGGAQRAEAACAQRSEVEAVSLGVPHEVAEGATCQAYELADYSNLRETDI
Description: Compounds were incubated with 0.6 nM [3H]Prazosin for 60 min at 25° C. Non-specific binding was estimated in the presence of 10 μM phentolamine. Receptor proteins were filtered and washed, the filters were then counted to determine [3H]Prazosin specifically bound. […] Biochemical assay results are presented as the percent inhibition of specific binding in Table B1.

[6] = target: T4, human recombinant adrenergic α2A receptor (Homo sapiens, UniProt P08913); assay: Radioligand binding, adrenergic α2A ([3H]MK-912); conditions: compound at 0.1 μM; [3H]MK-912; repeat assays, each datapoint shown
T4 construct: expressed in transfected cells; host or cells: insect Sf9 cells
T4 sequence (P08913 1-465): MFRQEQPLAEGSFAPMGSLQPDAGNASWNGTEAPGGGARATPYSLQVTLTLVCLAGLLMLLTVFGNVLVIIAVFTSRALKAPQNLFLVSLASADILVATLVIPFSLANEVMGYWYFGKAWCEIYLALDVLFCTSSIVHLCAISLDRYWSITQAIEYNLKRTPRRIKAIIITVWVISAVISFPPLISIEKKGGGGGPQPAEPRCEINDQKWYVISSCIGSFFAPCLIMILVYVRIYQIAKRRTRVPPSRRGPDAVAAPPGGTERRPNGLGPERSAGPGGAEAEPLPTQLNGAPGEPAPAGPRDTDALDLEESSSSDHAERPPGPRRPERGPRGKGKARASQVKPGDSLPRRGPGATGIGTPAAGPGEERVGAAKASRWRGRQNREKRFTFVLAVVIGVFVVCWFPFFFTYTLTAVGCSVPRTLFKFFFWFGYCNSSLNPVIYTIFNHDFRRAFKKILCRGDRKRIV
In short: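 Sf9-expressed receptor was incubated with compound for 60 min at 25 °C in modified Tris-HCl buffer, pH 7.4. Nonspecific binding was taken as that remaining with 10 μM WB-4101.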

[7] = 4-Br-A23187 2 μM, 24 h, compounds at 10 nM

Compound: Clc1cccc(Cl)c1N=C1NCCN1 [Clonidine, clonidine, reference compound]
maximum arterial blood pressure drop [1]: −6 mmHg

Compound: Cc1ccc2c(c1)c1c(n2CC(O)c2ccncc2)CCN(C)C1 (stereo not drawn) [Cpd3b]
viability at 0.01 µM [2]: 78.3%

Compound: CN1CCc2c(c3cc(Cl)ccc3n2CC(O)c2ccncc2)C1 (stereo not drawn) [Cpd4a]
viability at 0.01 µM [2]: 77.5%

Compound: Cc1ccc2c(c1)c1c(n2CC(C)(O)c2cccnc2)CCN(C)C1 (stereo not drawn) [Cpd5b]
viability at 0.01 µM [2]: 85.3%

Compound: Cc1ccc2c(c1)c1c(n2CC(O)c2ccncc2)CCNC1 (stereo not drawn) [Cpd39a]
viability at 0.01 µM [2]: 80.8%

Compound: N#CC(C#N)=NNc1ccc(OC(F)(F)F)cc1 [FCCP, p-trifluoromethoxyphenylhydrazone, reference compound]
Relative cell viability protection (SH-SY5Y cells; FCCP at 10 μM for 30 min as a control): 0.1035

inhibition at 0.1 µM ([3]; compound at 0.1 μM, read-out: Percentage inhibition of ligand binding, Adrenergic α2B): 101%
Percentage inhibition of ligand binding, Adrenergic α1B [4]: 60%
inhibition at 0.1 µM ([4]; read-out: Percentage inhibition of ligand binding, Adrenergic α1B): 51%
inhibition at 0.1 µM [5]: 12%
Compound: CN1CCc2c(c3cc(Cl)ccc3n2CC(O)c2ccncc2)C1 (stereo not drawn) [compound 4]
Relative cell viability protection (SH-SY5Y cells; [7]): 0.3463

Percentage inhibition of ligand binding, Adrenergic α2B ([3]; compound at 0.03 μM, 0.03 µM): 89%
Percentage inhibition of ligand binding, Adrenergic α2A [6]: 1%
Percentage inhibition of ligand binding, Adrenergic α1B [4]: 25%
Compound: Cc1ccc2c(c1)c1c(n2CC(O)c2ccncc2)CCNC1 (stereo not drawn) [compound 39, 2-(8-methyl-1,2,3,4-tetrahydro-pyrido[4,3-b]indol-5-yl)-1-pyridin-4-yl-ethanol]
Relative cell viability protection (SH-SY5Y cells; [7]): 0.36
